System: stimulierten humanen PBL
Test: Intracellular concentrations of AZT and AZT nucleotides (radioimmunoassay) in stimulated human PBL
Settings: for maximale intrazelluläre Konzentrationen an freiem AZT: without alkaline phosphatase; for maximale Konzentrationen an AZT und phosphorylierten AZT-Nukleotiden: with alkaline phosphatase
Source text: Zur Bestimmung der intrazellulären Konzentrationen an AZT und/oder AZT-Nukleotiden nach Inkubation mit AZT-DMDOPE bzw. AZT wurden humane PBL aus "Buffy coat" isoliert.
Hierfür wurde "Buffy-coat" von gesunden Spendern gemischt und durch Zentrifugation in einem isotonischen Medium mit einer Dichte von 1.077 g/ml fraktioniert. Da mononukleare Blutzellen (Monozyten und Lymphozyten) eine geringere Dichte als Erythrozyten und polymorphkernige Granulozyten haben, bilden sie einen Ring an der Grenze zwischen Trennmedium und Probe und können mit Hilfe einer Pipette abgenommen werden. Erythrozyten und polymorphkernige Granulozyten sedimentieren aufgrund ihrer höheren Dichte durch das Medium und lassen sich somit von PBL separieren. Zur Stimulation der Zellproliferation wurde Phytohämaglutinin A (Mukoprotein) (PHA-M), der mitogene Lektinextrakt aus der roten Feuerbohne (Phaseolus vulgaris), eingesetzt. Phytohämagglutinin ist eine Familie von 5 Isolektinen, die als Tetramere vorliegen. Die Untereinheiten bestehen aus einem lymphozytenreaktiven Typ-L und einem erythrozytenreaktiven Typ-E. Typ-L hat eine hohe Affinität zu Lymphozytenoberflächenrezeptoren und ist somit verantwortlich für die mitogenen Eigenschaften. Die Stimulation der Lymphozyten wurde in KPMI 1640 Komplettmedium III für 72 h bei 37 °C und 5 % CO2 durchgeführt. Nach Beendigung der Stimulation wurden zur Erhöhung der Zellzahl die Zellen für weitere 24 h in RPMI 1640 Komplettmedium IV kultiviert.
Zur Bestimmung der intrazellulären Konzentrationen an AZT und AZT-Nukleotiden wurden die Zellen in RPMI 1640 Komplettmedium II mit einer Dichte von 1 x 10^6 Zellen/ml in Gewebekulturflaschen (50 ml/25 cm^2) überführt, und in Anwesenheit von 0.03 bzw. 0.3 µg AZT/ml (Charge 15) und 1 bzw. 10 µg AZT-DMDOPE/ml für 1 - 24 h inkubiert.
Die Kulturen wurden anschließend für 1, 3, 6 und 24 h bei 37 °C und 5 % CO2 inkubiert. AZT und seine Nukleotide wurden anschließend mit 60 % Methanol extrahiert. Die extrahierten Nukleotide wurden mit alkalischer Phosphatase quantitativ zu AZT dephosphoryliert, da nur AZT, nicht jedoch die entsprechenden Nukleotide mit Hilfe eines Radioimmuno-Assays detektiert werden kann.
Die Konzentrationen an intrazellulärem AZT, die mit Hilfe des Radioimmuno-Assays bestimmt wurden, setzten sich dementsprechend aus der des AZT und den der AZT-Nukleotide zusammen. Eine separate Quantifizierung der Konzentrationen an AZT-MP, AZT-DP und AZT-TP wurde nicht durchgeführt.
Diese Experimente wurden an stimulierten humanen PBL durchgeführt.
Hierfür wurden Zellsuspensionen mit einer Dichte von 10^6 Zellen/ml mit 1 bzw. 10 µg AZT-DMDOPE/ml für 6 bzw. 24 h bei 37 °C und 5 % CO2 inkubiert.
Zur quantitativen Bestimmung von AZT wurde ein kommerzieller ^125J-AZT RIA Test-Kit verwendet. Puffer und Lösungen wurden gemäß den Angaben des Herstellers angesetzt und im Test-Kit eingesetzt. Die Reaktionsansätze wurden nach untenstehendem Schema (Tab. ) pipettiert, vorsichtig gemischt und für 2 h bei Raumtemperatur inkubiert. Anschließend wurden zur Präzipitation des Komplexes aus ^125J-AZT und des AZT-Antikörpers (aus Kaninchen) 500 µl des Ziege-Anti-Kaninchen-Antikörpers hinzugefügt. Die Ansätze wurden gemischt und erneut bei Raumtemperatur für 30 min inkubiert.

[1] = 10 µg AZT-DMDOPE/ml, after 24 h

Q: Which “maximale intrazelluläre Konzentrationen an freiem AZT” value (1 µg AZT-DMDOPE/ml, after 6 h) does the source give for `CCCCCCCCCCCCSCC(COP(=O)(O)OC[C@H]1O[C@@H](n2cc(C)c(=O)[nH]c2=O)C[C@@H]1N=[N+]=[N-])OCCCCCCCCCC` (stereo partly shown) [AZT-DMDOPE, (3'-Desoxy-3'-azidothymidin)-5'-phosphorsäure-(3-dodecyl-mercapto-2-decyloxy)-propylester] here?
A: 0.03 ng/10^6 Zellen

Q: What about the “maximale Konzentrationen an AZT und phosphorylierten AZT-Nukleotiden” value (1 µg AZT-DMDOPE/ml, after 24 h) of the same compound?
A: 3.85 ng/10^6 Zellen

Q: What about the “maximale Konzentrationen an AZT und phosphorylierten AZT-Nukleotiden” value [1] of the same compound?
A: 6.41 ng/10^6 Zellen

Q: What about the “maximale intrazelluläre Konzentrationen an freiem AZT” value [1] of the same compound?
A: 0.15 ng/10^6 Zellen

Q: And the “intrazellulärer Spiegel an AZT und seiner Nukleotiden, Verlauf” value (1 bzw. 10 µg AZT-DMDOPE/ml, whole incubation time 1 - 24 h)?
A: stetig steigender

Q: And the “intrazelluläre Spiegel im Vergleich zu AZT” value (after 24 h incubation, equipotent concentrations)?
A: identisch

Q: And the “intrazelluläre Konzentrationen an AZT und AZT-Nukleotiden im Vergleich zur äquipotenten Konzentration an AZT” value (incubation time 18 - 48 h, further experiments)?
A: größer

— EP0791056B1, “LIPID-CLEAVAGE ENZYME COMPLEX” (priority 1994, dated 1996)
